Where a name gives a salt, the structure may show the parent alone. Read-outs that look alike come from different tables or passages of the source.

Assay [1] has as its system late components of human complement (C3-C9). In words: Test Code 035 (C3-C9 inhibitor). It is filed as biochemical. Also on record: key: N = Inactive. Conditions: serial twofold dilution assay; higher well number indicates higher activity; lysis of EAC 142. An excerpt: (§1) An active inhibitor protects C2 from C1 and C4; (ii) Test Code 035 (C3-C9 inhibitor)--This test determines the ability of the late components of human complement (C3-C9) to lyse EAC 142 in the presence of appropriate dilutions of the test compound. An active inhibitor protects EAC 142 from lysis by human C3-C9; (iii) Test Code 036 (C-Shunt inhibitor)--In this test human erythrocytes rendered fragile are lysed in autologous serum via the shunt pathway activated by cobra venom factor in the presence of appropriate dilutions of the test compound. Inhibition of the shunt pathway results in failure of lysis; (iv) Forssman Vasculitis Test--Here, the well known complement dependent lesion, Forssman vasculitis, is produced in guinea pigs by intradermal injection of rabbit anti-Forssman antiserum. […] Percent inhibition is calculated by comparison with simultaneous controls. […]

The subject of assay [2] is serum complement activity. Put plainly: Guinea Pig Intraperitoneal Test (GPIP). It is filed as in vivo. The following applies: Cavia porcellus, ip, 200 mg./kg. i.p. An excerpt:
An active inhibitor protects C2 from C1 and C4; (ii) Test Code 035 (C3-C9 inhibitor)--This test determines the ability of the late components of human complement (C3-C9) to lyse EAC 142 in the presence of appropriate dilutions of the test compound. An active inhibitor protects EAC 142 from lysis by human C3-C9; (iii) Test Code 036 (C-Shunt inhibitor)--In this test human erythrocytes rendered fragile are lysed in autologous serum via the shunt pathway activated by cobra venom factor in the presence of appropriate dilutions of the test compound. Inhibition of the shunt pathway results in failure of lysis; (iv) Forssman Vasculitis Test--Here, the well known complement dependent lesion, Forssman vasculitis, is produced in guinea pigs by intradermal injection of rabbit anti-Forssman antiserum. The lesion is measured in terms of diameter, edema and hemorrhage and the extent to which a combined index of these is inhibited by prior intraperitoneal injection of the test compound at 200 mg./kg. is then reported, unless otherwise stated; (v) Forssman Shock Test--Lethal shock is produced in guinea pigs by an i.v. injection of anti-Forssman antiserum and the harmonic mean death time of treated guinea pigs is compared with that of simultaneous controls; (vi) Complement Level Reduction Test--In this test, the above dosed guinea pigs, or others, are bled for serum and the complement level is determind in undiluted serum by the capillary tube method of U.S. Pat. No. 3,876,376 and compared to undosed control guinea pigs; (vii) Cap 50 Test--Here, appropriate amounts of the test compound are added to a pool of quinea Pig serum in vitro, after which the undiluted serum capillary tube assay referred to above is run. The concentration of compound inhibiting 50% is reported; (viii) Guinea Pig Intraperitoneal Test (GPIP)--Guinea pigs weighing about 300 g. are dosed intraperitoneally (i.p.) with 200 mg./kg. of the test compound dissolved in saline and adjusted to pH 7-8. […] Percent inhibition is calculated by comparison with simultaneous controls. […]

Assay [3] addresses T1, activated human C1 (Homo sapiens, UniProt P09871).
T1 sequence (P09871 16-437 limits assumed): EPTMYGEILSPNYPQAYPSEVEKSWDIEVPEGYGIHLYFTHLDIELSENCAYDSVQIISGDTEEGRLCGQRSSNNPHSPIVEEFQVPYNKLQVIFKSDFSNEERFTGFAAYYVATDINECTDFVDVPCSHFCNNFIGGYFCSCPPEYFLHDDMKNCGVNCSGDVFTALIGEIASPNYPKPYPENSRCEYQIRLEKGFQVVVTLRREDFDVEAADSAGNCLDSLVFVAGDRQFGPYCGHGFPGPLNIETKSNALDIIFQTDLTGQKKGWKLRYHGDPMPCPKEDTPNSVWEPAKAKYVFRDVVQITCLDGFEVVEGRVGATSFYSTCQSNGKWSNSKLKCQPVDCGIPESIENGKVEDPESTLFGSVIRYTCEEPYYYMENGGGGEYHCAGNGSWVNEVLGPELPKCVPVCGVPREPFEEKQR
T1 sequence (P09871 438-688 limits assumed): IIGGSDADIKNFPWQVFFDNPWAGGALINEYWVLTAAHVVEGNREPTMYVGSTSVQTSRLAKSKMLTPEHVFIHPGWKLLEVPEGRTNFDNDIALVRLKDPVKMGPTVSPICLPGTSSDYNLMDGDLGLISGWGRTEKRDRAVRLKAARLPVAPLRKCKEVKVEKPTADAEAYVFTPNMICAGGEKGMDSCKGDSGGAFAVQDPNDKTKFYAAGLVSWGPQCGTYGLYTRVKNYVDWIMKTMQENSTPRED
Put plainly: Test Code 026 (C1 inhibitor). It is filed as biochemical. Conditions: serial twofold dilution assay; higher well number indicates higher activity.
Description: as §1

Consider `O=S(=O)(O)OC[C@H]1O[C@H](O[C@@H](c2nn(-c3ccccc3)c3nc4ccccc4nc23)[C@@H](COS(=O)(=O)O)OS(=O)(=O)O)[C@H](OS(=O)(=O)O)[C@@H](OS(=O)(=O)O)[C@@H]1O[C@H]1O[C@H](COS(=O)(=O)O)[C@@H](OS(=O)(=O)O)[C@H](OS(=O)(=O)O)[C@H]1OS(=O)(=O)O` [D-Erythro-2,3-dihydroxy-1-(1-phenyl-1H-pyrazolo[3,4-b]quinox] [D-Erythro-2,3-dihydroxy-1-(1-phenyl-1H-pyrazolo[3,4-b]quinoxalin-3-yl)propyl-4-O-α-D-glucopyranosyl-α-D-glucopyranoside, nonakis(H-sulfate), nonasalt with trimethylamine], for which the “035 In Vitro Activity (activity in wells)” value in assay [1] was “N”.

As usually defined, the inhibition is the relative decrease from the control value, in per cent. With `O=S(=O)(O)OC[C@H]1O[C@H](O[C@@H](c2nn(-c3ccccc3)c3nc4ccccc4nc23)[C@@H](COS(=O)(=O)O)OS(=O)(=O)O)[C@H](OS(=O)(=O)O)[C@@H](OS(=O)(=O)O)[C@@H]1O[C@H]1O[C@H](COS(=O)(=O)O)[C@@H](OS(=O)(=O)O)[C@H](OS(=O)(=O)O)[C@H]1OS(=O)(=O)O` [D-Erythro-2,3-dihydroxy-1-(1-phenyl-1H-pyrazolo[3,4-b]quinoxalin-3-yl)propyl-4-O-α-D-glucopyranosyl-α-D-glucopyranoside, nonakis(H-sulfate), nonasodium salt], the inhibition at 200 mg/kg in assay [2] (0.5 h, serum 30 minutes after injection, read-out: In Vivo Activity (Guinea Pig) (Intraperitoneal) % Inhibition, 30 minutes) is -58%; in assay [2] (1 h, serum 60 minutes after injection, read-out: In Vivo Activity (Guinea Pig) (Intraperitoneal) % Inhibition, 60 minutes) it was -56%; in assay [2] (2 h, serum 120 minutes after injection, read-out: In Vivo Activity (Guinea Pig) (Intraperitoneal) % Inhibition, 120 minutes), -76%.

As for `Cc1cc2nc3c([C@H](O[C@H]4O[C@H](COS(=O)(=O)O)[C@@H](O[C@H]5O[C@H](COS(=O)(=O)O)[C@@H](OS(=O)(=O)O)[C@H](OS(=O)(=O)O)[C@H]5OS(=O)(=O)O)[C@H](OS(=O)(=O)O)[C@H]4OS(=O)(=O)O)[C@@H](COS(=O)(=O)O)OS(=O)(=O)O)nn(-c4ccccc4)c3nc2cc1C` [D-Erythro-2,3-dihydroxy-1-(6,7-dimethyl-1-phenyl-1H-pyrazolo[3,4-b]quinoxalin-3-yl)propyl-4-O-α-D-glucopyranosyl-α-D-glucopyranoside, nonakis(H-sulfate), nonasalt with trimethylamine], the “035 In Vitro Activity (activity in wells)” value in assay [1] was “+1 wells”. The “026 In Vitro Activity (activity in wells)” value in assay [3] is given as “+5 wells”.

For the origin of these results see patent US4304903A, “D-Erythro-2,3-dihydroxy-1-(1-phenyl-1H-pyrazolo(3,4-b)quinoxalin-3-y l)-propyl-4-O-α-D-glucopyranosyl-alpha-D-glucopyranoside poly(H-sulfate)salts” (American Cyanamid Company, priority 1980, dated 1981).
